Laboratory results from BindingDB's records for patent WO2025049746 (Eikon Therapeutics, 2025).
Blank lines part the entries; values can stand above or below the compound they belong to.

Columns and labels:
[1] = target: Bifunctional 3'-5' exonuclease/ATP-dependent helicase WRN (Homo sapiens, UniProt Q14191); test: ADP-Glo Kinase Assay
Experimental: ATPase activity was measured using the ADP-Glo Kinase Assay following the manufacturers recommended protocol.

[2] = target: T1, Bifunctional 3'-5' exonuclease/ATP-dependent helicase WRN [480-1251] (UniProt Q14191); test: Biochemical Activity Assays
T1 construct: 480-1251
T1 sequence (Q14191 480-1251): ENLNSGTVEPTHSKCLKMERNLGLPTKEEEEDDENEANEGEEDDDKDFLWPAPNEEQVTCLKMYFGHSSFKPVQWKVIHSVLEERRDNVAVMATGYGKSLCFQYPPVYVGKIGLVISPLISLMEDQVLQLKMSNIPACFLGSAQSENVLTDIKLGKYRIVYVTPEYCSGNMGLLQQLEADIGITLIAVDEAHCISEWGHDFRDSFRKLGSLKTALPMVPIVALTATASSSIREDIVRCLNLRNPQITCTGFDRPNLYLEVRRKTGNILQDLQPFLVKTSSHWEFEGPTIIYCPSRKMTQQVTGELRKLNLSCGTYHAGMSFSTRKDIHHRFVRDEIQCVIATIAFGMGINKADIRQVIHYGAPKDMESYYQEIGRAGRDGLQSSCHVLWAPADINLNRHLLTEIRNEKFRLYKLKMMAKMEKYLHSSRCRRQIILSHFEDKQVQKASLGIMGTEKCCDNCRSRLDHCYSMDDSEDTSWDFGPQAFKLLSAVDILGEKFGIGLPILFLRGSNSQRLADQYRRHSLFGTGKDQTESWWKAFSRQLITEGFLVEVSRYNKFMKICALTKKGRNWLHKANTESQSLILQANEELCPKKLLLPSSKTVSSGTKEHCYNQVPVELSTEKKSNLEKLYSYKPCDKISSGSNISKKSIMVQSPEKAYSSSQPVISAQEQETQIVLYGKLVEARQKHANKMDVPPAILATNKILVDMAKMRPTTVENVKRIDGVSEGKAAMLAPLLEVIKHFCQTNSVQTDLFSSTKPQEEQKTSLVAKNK

Chain of Bifunctional 3'-5' exonuclease/ATP-dependent helicase WRN (Q14191 whole entry): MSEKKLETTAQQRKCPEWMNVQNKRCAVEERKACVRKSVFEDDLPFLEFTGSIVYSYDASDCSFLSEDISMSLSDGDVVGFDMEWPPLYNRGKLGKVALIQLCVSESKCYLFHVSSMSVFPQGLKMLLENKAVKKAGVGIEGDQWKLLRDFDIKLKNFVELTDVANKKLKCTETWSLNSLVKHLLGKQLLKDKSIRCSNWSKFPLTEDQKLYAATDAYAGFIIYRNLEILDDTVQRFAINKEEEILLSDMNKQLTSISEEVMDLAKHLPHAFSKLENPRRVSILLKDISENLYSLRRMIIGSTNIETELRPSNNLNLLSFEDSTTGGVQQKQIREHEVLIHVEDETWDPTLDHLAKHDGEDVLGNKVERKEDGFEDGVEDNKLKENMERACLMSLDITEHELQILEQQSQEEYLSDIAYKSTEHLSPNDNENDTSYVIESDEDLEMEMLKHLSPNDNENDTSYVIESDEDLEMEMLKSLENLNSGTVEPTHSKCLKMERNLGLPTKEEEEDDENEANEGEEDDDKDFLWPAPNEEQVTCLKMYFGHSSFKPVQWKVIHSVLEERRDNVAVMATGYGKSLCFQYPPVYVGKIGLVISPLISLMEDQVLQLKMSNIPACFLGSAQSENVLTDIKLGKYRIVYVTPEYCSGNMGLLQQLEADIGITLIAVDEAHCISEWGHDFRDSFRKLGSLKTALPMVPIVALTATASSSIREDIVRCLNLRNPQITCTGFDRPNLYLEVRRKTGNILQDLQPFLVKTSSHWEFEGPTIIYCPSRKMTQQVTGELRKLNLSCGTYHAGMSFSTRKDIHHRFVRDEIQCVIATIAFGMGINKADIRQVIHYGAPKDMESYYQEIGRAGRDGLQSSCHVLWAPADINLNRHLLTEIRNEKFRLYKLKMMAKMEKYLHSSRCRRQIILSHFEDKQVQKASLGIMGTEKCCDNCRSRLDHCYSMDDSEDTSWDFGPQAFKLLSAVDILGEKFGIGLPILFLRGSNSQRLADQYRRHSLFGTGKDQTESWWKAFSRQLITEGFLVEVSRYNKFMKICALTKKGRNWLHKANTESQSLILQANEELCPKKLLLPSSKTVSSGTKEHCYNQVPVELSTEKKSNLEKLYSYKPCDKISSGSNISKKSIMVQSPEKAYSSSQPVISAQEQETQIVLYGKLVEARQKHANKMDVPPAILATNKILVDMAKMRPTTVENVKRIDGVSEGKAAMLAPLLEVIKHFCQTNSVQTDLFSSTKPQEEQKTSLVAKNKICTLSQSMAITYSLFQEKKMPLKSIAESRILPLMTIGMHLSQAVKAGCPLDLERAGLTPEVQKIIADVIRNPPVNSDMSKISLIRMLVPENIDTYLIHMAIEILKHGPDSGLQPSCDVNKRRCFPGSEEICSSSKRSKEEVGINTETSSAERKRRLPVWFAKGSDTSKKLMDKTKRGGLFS

Structure (SMILES): CCc1c(N2CCN(C(=O)c3ncnc(C)c3O)CC2)c(=O)n2nc(-c3ccc(OCC(=O)O)cc3)nc2n1CC(=O)Nc1ccc(C(F)(F)F)cc1Cl [WO2025049746, Example 330]
IC50 [1]: 25 nM
IC50 [2]: 33 nM

Structure (SMILES): CCc1c(N2CCN(C(=O)c3ccccc3NS(C)(=O)=O)CC2)c(=O)n2nc(N(C)C)nc2n1CC(=O)Nc1ccc(C(F)(F)F)cc1Cl [WO2025049746, Example 82]
IC50 [1]: 58.9 nM
IC50 [2]: 40.7 nM

Structure (SMILES): CCc1c(N2CCN(C(=O)c3ncnc(C)c3O)CC2)c(=O)n2nc(-c3cc4cn(C)nc4cc3F)nc2n1CC(=O)Nc1ccc(C(F)(F)F)cc1Cl [WO2025049746, Example 256]
IC50 [1]: 23 nM
IC50 [2]: 22 nM

Structure (SMILES): CCc1c(N2CCN(C(=O)c3ncnc(C)c3O)CC2)c(=O)n2nc(-c3cccc4c3OCCO4)nc2n1CC(=O)Nc1ccc(SC(F)(F)F)cc1 [WO2025049746, Example 411]
IC50 [1]: 420 nM
IC50 [2]: 232 nM

Structure (SMILES): CCc1c(N2CCN(C(=O)c3ncnc(C)c3O)CC2)c(=O)n2nc(-c3ccc4c(c3)oc(=O)n4C)nc2n1CC(=O)Nc1ccc(C(F)(F)F)cc1Cl [WO2025049746, Example 233]
IC50 [1]: 21 nM
IC50 [2]: 24 nM

Structure (SMILES): CCc1c(N2CCN(C(=O)c3ncnc(C)c3O)CC2)c(=O)n2nc(-c3ccn4nc(F)cc4c3)nc2n1CC(=O)Nc1ccc(C(F)(F)F)cc1Cl [WO2025049746, Example 251]
IC50 [1]: 26 nM
IC50 [2]: 25 nM

Structure (SMILES): CCc1c(N2CCN(C(=O)c3nccc4nc[nH]c34)CC2)c(=O)n2nc(N(C)C)nc2n1CC(=O)Nc1ccc(C(F)(F)F)cc1Cl [WO2025049746, Example 80]
IC50 [1]: 43.3 nM
IC50 [2]: 26.9 nM

Structure (SMILES): C=C(c1ccc(NC(=O)Cn2c(CC)c(N3CCN(C(=O)c4ncnc(C)c4O)CC3)c(=O)n3nc(-c4ccc5c(c4)COC5)nc23)c(Cl)c1)C(F)(F)F [WO2025049746, Example 419]
IC50 [1]: 54 nM
IC50 [2]: 39 nM

Structure (SMILES): CCc1c(N2CCN(C(=O)c3ncnc(C)c3O)CC2)c(=O)n2nc(-c3ccc4c(c3)COC4)nc2n1CC(=O)Nc1ccc(C2(C(F)(F)F)CC2)cc1Cl [WO2025049746, Example 420]
IC50 [1]: 100 nM
IC50 [2]: 65 nM

Structure (SMILES): CCc1c(N2CCN(C(=O)c3nsc(N4CCN(C)CC4)c3O)CC2)c(=O)n2nc(-c3ccc4c(c3)COC4)nc2n1CC(=O)Nc1ccc(C(F)(F)F)cc1Cl [WO2025049746, Example 443]
IC50 [1]: 65 nM
IC50 [2]: 65 nM

Structure (SMILES): CCc1c(N2CCN(C(=O)c3ncnc(C)c3O)CC2)c(=O)n2nc(-c3ccc4nscc4c3)nc2n1CC(=O)Nc1ccc(C(F)(F)F)cc1Cl [WO2025049746, Example 266]
IC50 [1]: 22 nM
IC50 [2]: 22 nM

Structure (SMILES): CCc1c(N2CCN(C(C)=O)CC2)c(=O)n2nc(N(C)C)nc2n1CC(=O)Nc1ccc(C(F)(F)F)cc1Cl [WO2025049746, Example 81]
IC50 [1]: 533 nM
IC50 [2]: 174 nM

Structure (SMILES): CCc1c(N2CCN(C(=O)c3ncnc(C)c3O)CC2)c(=O)n2nc(C3CCC3)nc2n1CC(=O)Nc1ccc(C(F)(F)F)cc1C [WO2025049746, Example 79]
IC50 [1]: 539 nM
IC50 [2]: 456 nM

Structure (SMILES): CCc1c(N2CCN(C(=O)c3ncnc(C)c3O)CC2)c(=O)n2nc(-c3ccc4c(c3)C[C@H](OC)C4)nc2n1CC(=O)Nc1ccc(C(F)(F)F)cc1Cl [WO2025049746, Example 181]
IC50 [1]: 38 nM
IC50 [2]: 33 nM

Structure (SMILES): CCc1c(N2CCN(C(=O)c3ncnc(C)c3O)CC2)c(=O)n2nc(-c3ccc4c(c3)[C@@H](C)OC4)nc2n1CC(=O)Nc1ccc(C(F)(F)F)cc1Cl [WO2025049746, Example 190]
IC50 [1]: 38 nM
IC50 [2]: 30 nM

Structure (SMILES): CCc1c(N2CCN(C(=O)C(F)(F)C3(O)CCC3)CC2)c(=O)n2nc(C3=CCOCC3)nc2n1CC(=O)Nc1ccc(C(F)(F)F)cc1Cl [WO2025049746, Example 57]
IC50 [1]: 827 nM
IC50 [2]: 486 nM

Structure (SMILES): CCc1c(N2CCN(C(=O)c3ncnc(C)c3O)CC2)c(=O)n2nc(N3CCC(=C(F)F)CC3)nc2n1CC(=O)Nc1ccc(C(F)(F)F)cc1Cl [WO2025049746, Example 205]
IC50 [1]: 36 nM
IC50 [2]: 27 nM

Structure (SMILES): CCc1c(N2CCN(C(=O)c3ncnc(C)c3O)CC2)c(=O)n2nc(N3CCC4(COC4)C3)nc2n1CC(=O)Nc1ccc(C(F)(F)F)cc1Cl [WO2025049746, Example 29]
IC50 [1]: 73.9 nM
IC50 [2]: 63.2 nM

Structure (SMILES): CCc1c(N2CCN(C(=O)c3ncnc(C)c3O)CC2)c(=O)n2nc(-c3ccc4c(c3)COC4)nc2n1CC(=O)Nc1ccc(C(F)(F)F)c2c1CC2 [WO2025049746, Example 376]
IC50 [1]: 36 nM
IC50 [2]: 28 nM

Structure (SMILES): CCc1c(N2CCN(C(=O)c3cn(C)[nH]c3=O)CC2)c(=O)n2nc(C3=CCOCC3)nc2n1CC(=O)Nc1ccc(C(F)(F)F)cc1Cl [WO2025049746, Example 33]
IC50 [1]: 31 nM
IC50 [2]: 25.8 nM

Structure (SMILES): CCc1c(N2CCN(C(=O)c3ncnc(C)c3O)CC2)c(=O)n2nc(-c3ccc4c(c3)OCO4)nc2n1CC(=O)Nc1ccc(C(F)(F)F)c2c1CC2 [WO2025049746, Example 96]
IC50 [1]: 28.3 nM
IC50 [2]: 25.9 nM

Structure (SMILES): CCc1c(N2CCN(C(=O)c3ncnc(C)c3O)CC2)c(=O)n2nc(-c3ccc4scnc4c3)nc2n1CC(=O)Nc1ccc(C(F)(F)F)cc1Cl [WO2025049746, Example 288]
IC50 [1]: 40 nM
IC50 [2]: 43 nM

Structure (SMILES): CCc1c(N2CCN(C(=O)c3ncnc(C)c3O)CC2)c(=O)n2nc(-c3ccc4c(c3)COC43CCC3)nc2n1CC(=O)Nc1ccc(C(F)(F)F)cc1Cl [WO2025049746, Example 215]
IC50 [1]: 48 nM
IC50 [2]: 46 nM

Structure (SMILES): CCc1c(N2CCN(C(=O)c3ncnc(C)c3O)CC2)c(=O)n2nc(-c3ccc(C(=O)N4CCCC4)cc3)nc2n1CC(=O)Nc1ccc(C(F)(F)F)cc1Cl [WO2025049746, Example 267]
IC50 [1]: 26 nM
IC50 [2]: 23 nM

Structure (SMILES): CCc1c(N2CCN(C(=O)c3ncnc(C)c3O)CC2)c(=O)n2nc(C3=CCOCC3)nc2n1CC(=O)NC12CC(CCC(F)(F)F)(C1)C2 [WO2025049746, Example 361]
IC50 [1]: 29700 nM
IC50 [2]: 29700 nM

Structure (SMILES): CCc1c(N2CCN(C(=O)c3ncnc(C)c3O)CC2)c(=O)n2nc(-c3ccc4nn(C)nc4c3)nc2n1CC(=O)Nc1ccc(C(F)(F)F)cc1Cl [WO2025049746, Example 301]
IC50 [1]: 33 nM
IC50 [2]: 35 nM

Continued by falling IC50 [1], values first:

IC50 [1]: 1790 nM
IC50 [2]: 1810 nM
Structure (SMILES): Cc1ncnc(C(=O)N2CCN(c3c4n(c5nc(-c6ccc7c(c6)COC7(C)C)nn5c3=O)[C@H](C(=O)Nc3ccc(C(F)(F)F)cc3Cl)C[C@@H]4C)CC2)c1O [WO2025049746, Example 471]

IC50 [1]: 737 nM
IC50 [2]: 139 nM
Structure (SMILES): CCc1c(N2CCN(C(=O)C(F)(F)CO)CC2)c(=O)n2nc(C3=CCOCC3)nc2n1CC(=O)Nc1ccc(C(F)(F)F)cc1Cl [WO2025049746, Example 56]

IC50 [1]: 156 nM
IC50 [2]: 79.4 nM
Structure (SMILES): CCc1c(N2CCN(C(=O)c3cccn4ccnc34)CC2)c(=O)n2nc(C3=CCOCC3)nc2n1CC(=O)Nc1ccc(C(F)(F)F)cc1Cl [WO2025049746, Example 50]

IC50 [1]: 106 nM
IC50 [2]: 84 nM
Structure (SMILES): CCc1c(N2CCN(C(=O)c3nc4c(cc3O)CCC4)CC2)c(=O)n2nc(-c3ccc4c(c3)COC4)nc2n1CC(=O)Nc1ccc(C(F)(F)F)cc1Cl [WO2025049746, Example 417]

IC50 [1]: 89 nM
IC50 [2]: 60 nM
Structure (SMILES): CCc1c(N2CCN(C(=O)c3ncnc(C)c3O)CC2)c(=O)n2nc(-c3cccc4c3COC4)nc2n1CC(=O)Nc1c(Cl)cc(C(F)(F)F)c2c1CC2 [WO2025049746, Example 386]

IC50 [1]: 63.9 nM
IC50 [2]: 45.9 nM
Structure (SMILES): CCc1c(N2CCN(c3ccncn3)CC2)c(=O)n2nc(C3=CCOCC3)nc2n1CC(=O)Nc1ccc(C(F)(F)F)cc1Cl [WO2025049746, Example 66]

IC50 [1]: 51 nM
IC50 [2]: 41 nM
Structure (SMILES): CCc1c(N2CCN(C(=O)c3ncnc(C)c3O)CC2)c(=O)n2nc(-c3ccc4c(c3)C(C)CO4)nc2n1CC(=O)Nc1ccc(C(F)(F)F)cc1Cl (stereo unspecified) [WO2025049746, Example 170]

IC50 [1]: 43 nM
IC50 [2]: 34 nM
Structure (SMILES): CCc1c(N2CCN(C(=O)c3ncnc(C)c3O)CC2)c(=O)n2nc(-c3ccc4c(c3)CCOC4)nc2n1CC(=O)Nc1ccc(OC(F)(F)Cl)cc1 [WO2025049746, Example 398]

IC50 [1]: 34.6 nM
IC50 [2]: 29.2 nM
Structure (SMILES): CCc1c(N2CCN(C(=O)c3nc4n(c(=O)c3O)CCOC4)CC2)c(=O)n2nc(-c3ccc4c(c3)CCOC4)nc2n1CC(=O)Nc1ccc(C(F)(F)F)cc1Cl [WO2025049746, Example 90]

IC50 [1]: 34 nM
IC50 [2]: 35 nM
Structure (SMILES): CCc1c(N2CCN(C(=O)c3ncnc(C)c3O)CC2)c(=O)n2nc(-c3ccc4nn(C)cc4c3C)nc2n1CC(=O)Nc1ccc(C(F)(F)F)cc1Cl [WO2025049746, Example 295]

IC50 [1]: 32.4 nM
IC50 [2]: 34.6 nM
Structure (SMILES): Cc1ncnc(C(=O)N2CCN(c3c4n(c5nc(-c6ccc7c(c6)COC7(C)C)nn5c3=O)[C@@H](C(=O)Nc3ccc(C(F)(F)F)cc3Cl)C[C@H]4C)CC2)c1O [WO2025049746, Example 470]

IC50 [1]: 26.1 nM
IC50 [2]: 18.8 nM
Structure (SMILES): CCc1c(N2CCN(C(=O)c3ncnc(C)c3O)CC2)c(=O)n2nc(C3=CCOCC3)nc2n1CC(=O)Nc1ccc(C(F)(F)C(F)(F)Cl)cc1 [WO2025049746, Example 71]

IC50 [1]: 25 nM
IC50 [2]: 24 nM
Structure (SMILES): CCc1c(N2CCN(C(=O)c3ncnc(C)c3O)CC2)c(=O)n2nc(-c3ccc4c(c3)ncn4C)nc2n1CC(=O)Nc1ccc(C(F)(F)F)cc1Cl [WO2025049746, Example 254]

IC50 [1]: 25 nM
IC50 [2]: 32 nM
Structure (SMILES): CCc1c(N2CCN(C(=O)c3ncnc(C)c3O)CC2)c(=O)n2nc(-c3ccc4c(c3)CCC(=O)N4C)nc2n1CC(=O)Nc1ccc(C(F)(F)F)cc1Cl [WO2025049746, Example 324]

IC50 [1]: 24 nM
IC50 [2]: 24 nM
Structure (SMILES): CCc1c(N2CCN(C(=O)c3ncnc(C)c3O)CC2)c(=O)n2nc(-c3ccc4ccnn4c3)nc2n1CC(=O)Nc1ccc(C(F)(F)F)cc1Cl [WO2025049746, Example 253]

IC50 [1]: 19 nM
IC50 [2]: 21 nM
Structure (SMILES): CCc1c(N2CCN(C(=O)c3ncnc(C)c3O)CC2)c(=O)n2nc(-c3cnc4c(ccn4C)c3)nc2n1CC(=O)Nc1ccc(C(F)(F)F)cc1Cl [WO2025049746, Example 252]

IC50 [1]: 14.6 nM
IC50 [2]: 12.2 nM
Structure (SMILES): CCc1c(N2CCN(C(=O)c3ncnc(C)c3O)CC2)c(=O)n2nc(C3=CCOCC3)nc2n1CC(=O)Nc1ccc(OC(F)(F)Cl)cc1 [WO2025049746, Example 72]
